# Experimental data published in patent US20200339582A1, “Atypical Carbapenem Antibiotics with Improved Activity Against Carbapenemase-Producing Acinetobacter baumannii” (priority 2019, published 2020).
# Where two headings read alike, the source gives them in different places.
# Experiments:
# Format in all cases: cell-based
# [1] = tested on: Acinetobacter baumannii (carbapenemase produced: None); experiment: MIC against Acinetobacter baumannii, no carbapenemase produced
# [2] = tested on: resistant Acinetobacter baumannii producing OXA-48; experiment: MIC against Acinetobacter baumannii producing OXA-48
# [3] = tested on: resistant Acinetobacter baumannii producing OXA-23; experiment: MIC against Acinetobacter baumannii producing OXA-23
# [4] = tested on: resistant Acinetobacter baumannii producing KPC-6; experiment: MIC against Acinetobacter baumannii producing KPC-6
# [5] = tested on: resistant Acinetobacter baumannii producing VIM-2; experiment: MIC against Acinetobacter baumannii producing VIM-2
# [6] = tested on: resistant Acinetobacter baumannii producing NDM-1; experiment: MIC against Acinetobacter baumannii producing NDM-1
# [7] = Table 1, carbapenemase produced: None
# [8] = Table 1, carbapenemase produced: OXA-48
# [9] = Table 1, carbapenemase produced: OXA-23
# [10] = Acinetobacter baumannii, Table 2, enzyme produced: NDM-1, read-out: MIC
# [11] = Acinetobacter baumannii, Table 1, carbapenemase produced: None, read-out: MIC
# [12] = Acinetobacter baumannii, Table 2, enzyme produced: None, read-out: MIC
# [13] = Table 2, enzyme produced: OXA-48
# [14] = Acinetobacter baumannii, Table 1, carbapenemase produced: OXA-23, read-out: MIC
# [15] = Table 2, enzyme produced: OXA-23
# [16] = Acinetobacter baumannii, Table 2, enzyme produced: VIM-2, read-out: MIC
# [17] = Acinetobacter baumannii, Table 1, carbapenemase produced: OXA-48, read-out: MIC
# [18] = Acinetobacter baumannii, Table 2, enzyme produced: OXA-48, read-out: MIC
"MIC [1, 7]","MIC [2, 8]","MIC [3, 9]",Compound,MIC ([4]; Acinetobacter baumannii),"MIC [6, 10]","MIC [1, 11]","MIC [1, 12]","MIC [3, 14]","MIC [3, 15]","MIC [5, 16]","MIC [2, 17]","MIC [2, 18]",other results
0.25 µg/mL,16 µg/mL,8 mg/L,CN(C)C(=O)[C@@H]1C[C@H](SC2=C(C(=O)O)N3C(=O)[C@H](CO)[C@H]3C2)CN1 [Compound 1],–,–,–,–,–,–,–,–,–,–
–,–,–,"C[C@@H](O)[C@H]1C(=O)N2C(C(=O)O)=C(S[C@@H]3CN[C@H](C(=O)Nc4cccc(C(=O)O)c4)C3)[C@H](C)[C@H]12 [Ertapenem, ertapenem]",> 512 µg/mL,256 µg/mL,2 µg/mL,4 µg/mL,256 mg/L,256 mg/L,–,–,–,"MIC ([5]; Acinetobacter baumannii): > 512 µg/mL; MIC ([2]; Acinetobacter baumannii): 128 µg/mL; MIC [2, 13]: 128 µg/mL"
–,–,–,"C[C@@H](O)[C@H]1C(=O)N2C(C(=O)O)=C(S[C@@H]3CN[C@H](C(=O)N(C)C)C3)[C@H](C)[C@H]12 [Meropenem, meropenem]",256 µg/mL,–,0.5 µg/mL,0.5 µg/mL,64 mg/L,64 mg/L,64 µg/mL,8 µg/mL,16 µg/mL,MIC ([6]; Acinetobacter baumannii): 128 µg/mL
–,–,–,"C[C@@H](O)[C@H]1C(=O)N2C(C(=O)O)=C(S[C@@H]3CN[C@H](CNS(N)(=O)=O)C3)[C@H](C)[C@H]12 [Doripenem, doripenem]",128 µg/mL,64 µg/mL,0.25 µg/mL,0.25 µg/mL,32 mg/L,32 mg/L,32 µg/mL,16 µg/mL,16 µg/mL,–
–,–,–,"C[C@@H](O)[C@H]1C(=O)N2C(C(=O)O)=C(SCCN=CN)C[C@H]12 [Imipenem, imipenem]",–,16 µg/mL,0.25 µg/mL,0.25 µg/mL,32 mg/L,32 mg/L,32 µg/mL,16 µg/mL,16 µg/mL,–
–,–,–,"CC1(C)S[C@@H]2[C@H](NC(=O)[C@H](N)c3ccccc3)C(=O)N2[C@H]1C(=O)O [AMP, ampicillin]",4100 µg/mL,–,–,32 µg/mL,–,–,> 8190 µg/mL,–,–,"MIC ([6]; Acinetobacter baumannii): 1020 µg/mL; MIC ([2]; Acinetobacter baumannii): 1020 µg/mL; MIC ([3]; Acinetobacter baumannii, Table 2, enzyme produced: OXA-23, read-out: MIC): 8190 mg/L"
0.5 µg/mL,1 µg/mL,4 mg/L,"C[C@@H](O)[C@H]1C(=O)N2C(C(=O)O)=C(S[C@@H]3CN[C@H](C(=O)N(C)C)C3)CC12C (stereo partly drawn) [Compound 2a, (6S)-6-[(R)-1-Hydroxyethyl]-3-[(3S,5S)-5-(dimethylamino)carbonyl-3-pyrrolidinylthio]-5-methyl-7-oxoazabicyclo[3.2.0]hept-2-ene-2-carboxylate]",–,–,–,–,–,–,–,–,–,–

Compound,"MIC [1, 7]","MIC [2, 8]","MIC [3, 9]",MIC ([4]; Acinetobacter baumannii),"MIC [6, 10]","MIC [1, 11]","MIC [1, 12]","MIC [3, 14]","MIC [3, 15]","MIC [5, 16]","MIC [2, 17]","MIC [2, 18]",other results
"CCC12CC(S[C@@H]3CN[C@H](C(=O)N(C)C)C3)=C(C(=O)O)N1C(=O)[C@@H]2[C@@H](C)O (stereo partly drawn) [Compound 2b, (6S)-6-[(R)-1-Hydroxyethyl]-3-[(3S,5S)-5-(dimethylamino)carbonyl-3-pyrrolidinylthio]-5-ethyl-7-oxoazabicyclo[3.2.0]hept-2-ene-2-carboxylate]",2 µg/mL,4 µg/mL,4 mg/L,–,–,–,–,–,4 mg/L,–,–,–,"MIC ([4]; Table 2, enzyme produced: KPC-6): 4 µg/mL; MIC ([5]; Table 2, enzyme produced: VIM-2): 4 µg/mL; MIC ([6]; Table 2, enzyme produced: NDM-1): 2 µg/mL; MIC ([1]; Table 2, enzyme produced: None): 2 µg/mL; MIC [2, 13]: 4 µg/mL"
